One experiment concerns nine HCC cell lines. Kind of experiment: CCK‐8 cell proliferation assay. Format: cell-based. The settings on record: Homo sapiens; post‐treatment for 144 h; read-out: half‐maximal inhibitory concentration (IC50), proliferation of HCC cell lines. The procedure: Cell viability was determined using Cell Counting Kit‐8 (CCK8; Dojindo) or 3‐(4, 5‐dimethylthiazol‐2‐yl)‐2,5‐diphenyltetrazoliumbromide (MTT, Sigma Aldrich) assay. […] Consequently, cell viability was determined using a microplate reader (Thermo Fisher) at 450 nm for CCK8 assay, or 570 nm for MTT assay, at different time points. The IC50 values and CI values were analyzed and calculated using GraphPad Prism 8 and CompuSyn (version 1.0; http://www.combosyn.com), respectively.

A further experiment relates to HepG2. Kind of experiment: Cell proliferation assay. Type of experiment: cell-based. To be noted: Homo sapiens, HepG2, 144 h. The procedure: (§1) Cell viability was determined using Cell Counting Kit‐8 (CCK8; Dojindo) or 3‐(4, 5‐dimethylthiazol‐2‐yl)‐2,5‐diphenyltetrazoliumbromide (MTT, Sigma Aldrich) assay. A selection of HCC cells was exposed to gradient concentration of ZY0511 for 96–144 h, or exposed to other LSD1 inhibitors including SP2509, GSK2879552, and ORY1001 for 144 h, or exposed to DTP3, which enhanced the apoptosis induction function of GADD45B for 96 h in combination therapy. Consequently, cell viability was determined using a microplate reader (Thermo Fisher) at 450 nm for CCK8 assay, or 570 nm for MTT assay, at different time points. The IC50 values and CI values were analyzed and calculated using GraphPad Prism 8 and CompuSyn (version 1.0; http://www.combosyn.com), respectively.

For a further experiment, the system named is JHH7. Description: Cell proliferation assay. Format: cell-based. The settings on record: Homo sapiens, JHH7, 144 h. The protocol:
as §1

In another experiment the test system is HuH7. Description: Cell proliferation assay. Type of experiment: cell-based. The settings on record: Homo sapiens, Huh-7; HuH7, 144 h. The procedure: as §1
The test system of another experiment is PLC/PRF/5. Kind of experiment: Cell proliferation assay. To be noted: Homo sapiens; PLC/PRF/5, 144 h. Type of experiment: cell-based. The protocol:
as §1

The next experiment deals with HuH6. Kind of experiment: Cell proliferation assay. Type of experiment: cell-based. The settings on record: Homo sapiens, HuH-6; HuH6, 144 h. The procedure:
as §1

In another experiment the test system is Hep3B. Kind of experiment: Cell proliferation assay. Type of experiment: cell-based. To be noted: Homo sapiens, 144 h. The protocol: as §1
The test system of a further experiment is SK-Hep-1. Description: Cell proliferation assay. Type of experiment: cell-based. To be noted: Homo sapiens, SK-HEP1; SK-Hep-1, 144 h. The procedure:
as §1

The next experiment concerns QGY7701. Description: Cell proliferation assay. Type of experiment: cell-based. The settings on record: Homo sapiens, QGY7701, 144 h. The protocol:
as §1

Another experiment concerns HCCLM3. Kind of experiment: Cell proliferation assay. Format: cell-based. The settings on record: Homo sapiens, HCCLM3, 144 h. The procedure:
as §1

The target in experiment [1] is Truncated human LSD1 (residues 172–836) (Homo sapiens, UniProt O60341). Kind of experiment: Surface plasmon resonance (Biacore). Format: binding. The settings on record: 25°C, read-out: dissociation constant (KD). Background: In SPR one partner is held on a chip, and binding of the other changes the refractive index at the surface.
Experimental: Briefly, the truncated LSD1 was cloned into a pET28a plasmid and expressed in Escherichia coli BL21(DE3) at 18°C (Novagen). The fusion protein was purified by the nickel charged nitrilotriacetic acid (Ni‐NTA, GE Healthcare) with buffer A (20 mM Tris‐HCl, pH 8.5, 10 mM imidazole, 500 mM NaCl, and 2 mM dithiothreitol DTT) and buffer B (20 mM Tris‐HCl, Ph 8.5, 500 mM imidazole, 500 mM NaCl, and 2 mM DTT). Then, LSD1 was digested overnight with Thrombin Protease (Sigma Aldrich) to remove His‐tag and dialyzed against buffer C (20 mM Tris‐HCl, pH 8.5, 150 mM NaCl, and 2mM DTT) overnight at 4°C. The next day, the target protein was applied to Ni‐NTA again to remove the uncleaved His‐tag protein. LSD1 without His‐tag was further purified by an S200 16/600 column (GE Healthcare) in buffer C. The quality of purified LSD1 was checked by sodium dodecyl sulphate‐polyacrylamide gel electrophoresis (SDS‐PAGE).[47]
LSD1 protein was immobilized on a CM5 sensor chip by the amine‐coupling method. […] The binding kinetics was analyzed using BIAevaluation software (version 4.1, Biacore).

In general, Kd refers to the free concentration of one partner at which half of the binding sites on the other are occupied at equilibrium, for simple one-to-one binding.

With `O=C(O)c1ccc(CN2CCC(CN[C@@H]3C[C@H]3c3ccccc3)CC2)cc1` [GSK2879552], the IC50 with nine HCC cell lines is no less than 28.6 µM; in the experiment on HepG2, greater than 100 µM; with JHH7, greater than 100 µM; in the experiment on HuH7 it was greater than 100 µM; in the experiment on PLC/PRF/5, greater than 100 µM; in the experiment with HuH6, greater than 100 µM. For the same compound, the IC50 in the experiment with Hep3B, in the experiment on SK-Hep-1, in the experiment on QGY7701 and in the experiment on HCCLM3 was greater than 100 µM throughout.

Turning to `N[C@H]1CC[C@H](N[C@@H]2C[C@H]2c2ccccc2)CC1` [ORY1001], the IC50 is no less than 28.6 µM in the experiment with nine HCC cell lines; greater than 100 µM in the experiment with HepG2; 56.2 ± 9.07 µM with JHH7; greater than 100 µM in the experiment on HuH7; greater than 100 µM with PLC/PRF/5; 46.3 ± 1.39 µM in the experiment on HuH6. Moreover, the IC50 in the experiment with Hep3B is 28.6 ± 6.72 µM; in the experiment on SK-Hep-1, 35.8 ± 5.05 µM; in the experiment on QGY7701 it was greater than 100 µM; in the experiment with HCCLM3, greater than 100 µM.

As to `C/C(=N\NC(=O)c1cccc(S(=O)(=O)N2CCOCC2)c1)c1cc(Cl)ccc1O` [SP2509], the Kd in experiment [1] came to 0.0198 µM.

Source of the values: paper PMC10209615, “Pharmacological inhibition of LSD1 suppresses growth of hepatocellular carcinoma by inducing GADD45B” (MedComm, 2023).
